Assays:
α-synuclein aggregates = α-synuclein aggregates (Homo sapiens (Human), UniProt P37840); experiment: ReNcell VM α-synuclein aggregation assay; type: cell-based; conditions: for DC50: ReNcell VM cells, read-out: Activity (DC50, concentration at which 50% of α-synuclein aggregates has been degraded)
Method: The ReNcell VM α-synuclein aggregation assay was conducted at Charles River Laboratories (CRL). ReNcell VM is an immortalized human neural progenitor cell line derived from the ventral mesencephalon region of the brain. ReNcell VM cells were selected as in vitro cellular model for the α-synuclein aggregation assay, based on their growth features, differentiation potential into terminally differentiated neurons and amenability to adenoviral transduction. Aggregated human wild type α-synuclein was overexpressed through adenoviral delivery. Aggregated α-synuclein was detected with the aggregate-selective anti-α-synuclein antibody MJFR14 using immunocytochemistry; total α-synuclein levels were detected with Syn205 (α/β-synuclein-specific antibody).
The ReNcell VM α-synuclein aggregation assay was applied for compound screening to identify compounds capable of degrading α-synuclein aggregates. […] Immunoreactivity toward aggregated (MJFR14) and total α-synuclein (Syn205) was quantified using high content-based segmentation of immunoactive areas in immunocytochemical images (performed with the IN Cell 2200 (GE Healthcare)), followed by quantification of immunofluorescent intensity (performed by CRL's developed algorithm using IN Cell Developer Toolbox software).
Percentage effect (PE): Inhibition in comparison to BLANK (0.1% DMSO).
PE=100−(signal of compound/average signal BLANK)×100
Compound-induced cytotoxicity (% remaining cells)
% remaining cells=(nuclei count of compound/average nuclei count of BLANK)×100

α-synuclein [1] = biological target: T1, α-synuclein (Homo sapiens (Human), UniProt P37840); experiment: In vivo assay for degrading α-synuclein aggregates (transgenic Line61 mice); conditions: 25 mpk, once intravenous, hemibrain, WES System
Method: Male transgenic Line61 mice at age of three-month-old were used for the study. Mice were treated once via intravenous injection with the compound 132168 (25 mpk). Plasma and brain samples were collected at 0.25, 0.5, 1, 2, 4, 8 and 24 h post treatment. Blood samples were collected via cardiac puncture into MiniCollect® 0.5 mL K2EDTA (Potassium ethylenediaminetetraacetic acid) tubes. The blood samples were centrifuged at 3000×g for 10 minutes at room temperature (22° C.). Plasma was transferred to a pre-labeled 1.5 ml LoBind Eppendorf tube (2 aliquot, each ˜[…]), frozen on dry ice and stored at −80° C. until analysis. For brain samples, a perfusion with 0.9% saline was performed before collection. Brain was weighed, hemisected on a cooled surface, weighed and snap frozen. The hemibrain was used for WES System analysis of human α-synuclein in soluble and insoluble fraction. Upon treatment of compound 132168, insoluble α-synuclein fraction decreases 30% compared to DMSO vehicle control, reflecting the reduction of insoluble α-synuclein aggregates.

[2] = In vivo pharmacokinetic study; conditions: mice; for AUC(0-t) / Cmax / Tmax / half-life: mouse
Method: To determine whether the compounds of the present disclosure are capable of crossing the blood brain barrier (BBB), example compound 132168 was administered to mice in a pharmacokinetic study (10 and 25 mg/kg, intravenous).
Animal Husbandry: Mice were housed at animal room environment with ventilation 15 times/hour, lighting 12 hours/day, temperature 20° C. to 24° C. and humidity 40% to 70%. The study rooms were disinfected and cleaned prior to the start of the study and the operation area was cleaned after each dosing or sampling during the study conduct. All animals had free access to food and water during the study. The animals had access to Certified Rodent Diet and water ad libitum. The nutritional composition and levels of contaminants of the diet and impurities and contaminants of the water were monitored by third organization. The health status of the animals was evaluated in accordance with accepted animal husbandry procedures and deemed suitable for experimental use.
Sample Collection & Processing: Approximately 110 μL of whole blood were collected from all animals via facial or cardiac puncture under anesthesia with Isoflurane into test tubes containing potassium ethylenediaminetetraacetate (K2EDTA) at 0.25, 0.5, 1, 2, 4, 8 and 24 hr post dose. Brian samples were collected at 0.25, 0.5, 1, 2, 4, 8 and 24 hours post dose. A perfusion with pre-cold saline will be conducted via cardiac puncture before brain collection. Blood samples were centrifuged at 2000 g at 4° C. for 5 minutes to obtain plasma samples by transferring the supernatants into new tubes. All plasma and brain samples were stored at approximately −70° C. until analysis.
Bioanalytical Method Development: The concentrations of compound in plasma and brain samples were determined using a liquid chromatography with tandem mass spectrometry (LC-MS/MS) based method.

α-synuclein [3] = biological target: T1, α-synuclein; experiment: In vitro fluorometric α-synuclein binding assay; conditions: 2 μM α-synuclein, 37° C., 1 hour, fluorescence
Method: (§1) (A) Expression and purification of recombinant wild-type human α-synuclein: 0.5 mM IPTG was used to induce production of wild type human α-synuclein by bacteria transformed with a full-length α-synuclein expression plasmid. After shaking at 16° C. for 20 hours, cell pellet was resuspended in lysis buffer (10 mM Tris, 1 mM EGTA, 0.75 mM NaCl, 1 mM PMSF, pH 7.5) and lysed by sonication followed by centrifugation (6000 g, 30 min, 4° C.). The supernatant was then boiled at 95° C. for 15 min with manual agitation by every 5 minutes, followed by centrifugation (6000 g, 30 min, 4° C.). Supernatant was dialyzed with (10 mM Tris, 1 mM EGTA, 50 mM NaCl, pH 7.5) buffer and concentrated with concentrator. The collected sample was loaded onto a Superdex200 column, the flow-through fraction was then loaded onto a Q-HP column. Collected fractions with α-synuclein eluates were pooled, concentrated and stored at −80° C.
(§2) (B) Preparation of aggregated α-synuclein: 5 mg/mL of α-synuclein in PBS buffer (pH 7.4) was incubated in tube with at 37° C. with shaking (700 rpm) for 5-10 days.
(C) In vitro fluorometric α-synuclein binding assays: 2 μM α-synuclein was incubated with serially diluted compound (three-fold serial dilutions, from 10 to 0.001 μM) in a 96-well plate at 37° C. for 1 hour. Fluorescence intensity was read by microplate spectrometer. Compound Kd values were calculated using the following equation: Y=Bmax*X/(Kd+X), where X is the concentration of compound; Y is the fluorescence signal of (compound+α-synuclein)−(compound+DMSO); and Bmax is the maximum signal.

α-synuclein [4] = biological target: T1, α-synuclein; experiment: PBB5 competition assay; type: binding; conditions: 2 μM α-synuclein, 0.26 μM PBB5, 37° C., 1 hour
Method: as §1, §2
(D) PBB5 competition assay: 2 μM of α-synuclein was incubated with 0.26 μM 2-(4-(2-(methylamino)pyridine-5-yl)-1,3-butadiene-1-yl)benzothiazole-6-ol (PBB5) and serially diluted compound (three-fold serial dilution, from 10 to 0.001 μM) in a 96-well plate at 37° C. for 1 hour. Fluorescence intensity (excitation/emission=530/690 nm) of PBB5 was read by microplate spectrometer. Percentage of competition was calculated using the following equation: (Max−well of compound alone)/(Max−Min)*100%, where Max=(α-synuclein+PBB5) signals−(buffer+PBB5) signals; and Min=(buffer+PBB5) signals−(buffer+PBB5) signals. The IC50 value of each compound was calculated with GraphPad Prism software using the “4 Parameter Logistic Model or Sigmoidal Dose-Response Model”: Y=Bottom+(Top−Bottom)/(1+(IC50/X)^HillSlope)

Row | SMILES | inhibition of MJFR14 immunoreactivity (α-synuclein aggregates; 6-day treatment, immunocytochemical images) | DC50 (α-synuclein aggregates) | decrease of insoluble α-synuclein fraction compared to DMSO vehicle control (α-synuclein [1]) | blood brain barrier (BBB) penetration ([2]; 10 and 25 mg/kg intravenous) | AUC(0-t) ([2]; Brain, 10 mg/kg intravenous) | Cmax ([2]; Brain, 10 mg/kg intravenous) | Tmax ([2]; Brain, 10 mg/kg intravenous) | half-life ([2]; Brain, 10 mg/kg intravenous) | AUC(0-t) ([2]; Brain, 25 mg/kg intravenous) | Cmax ([2]; Brain, 25 mg/kg intravenous) | Tmax ([2]; Brain, 25 mg/kg intravenous) | AUC(0-t) ([2]; Plasma, 10 mg/kg intravenous) | half-life ([2]; Plasma, 10 mg/kg intravenous) | AUC(0-t) ([2]; Plasma, 25 mg/kg intravenous) | half-life ([2]; Plasma, 25 mg/kg intravenous) | Kd (α-synuclein [3]) | IC50 (α-synuclein [4])
1 | CN(C)c1ccc(-c2ccc(-c3nc4ccc(NCCCCCOc5ccc6c(c5)CN(C5CCC(=O)NC5=O)C6=O)cc4s3)c(C(F)(F)F)c2)cn1 (stereo not drawn) [Compound 132168] | clear inhibition | 0.01 to 0.9 µM | 30% | able to penetrate BBB | 1.33 µg·h/mL | 0.319 µg/mL | 0.5 h | 5.88 h | 4.07 µg·h/mL | 0.581 µg/mL | 4 h | 17.8 µg·h/mL | 2.87 h | 48.7 µg·h/mL | 2.12 h | – | –
2 | CN(C)c1ccc(-c2ccc(-c3nc4ccc(OCCOCCOc5ccc6c(c5)CN(C5CCC(=O)NC5=O)C6=O)cc4s3)cc2)cn1 (stereo not drawn) [Compound 163123] | – | > 10 µM | – | – | – | – | – | – | – | – | – | – | – | – | – | 0.26 µM | > 10 µM

Source: patent US12377152B2, “Compounds for degrading alpha-synuclein aggregates and uses thereof” (APRINOIA THERAPEUTICS LIMITED, priority 2019, dated 2025)
